Non-standard residues stand in square brackets, D forms with d. Residues, ends and D or L forms follow the SMILES beside them.
Test system: GH Release
Experiment: In vivo GH release in pentobarbital anesthetized rats (serum GH by RIA)
Design: species or system Sprague-Pawley rats
Conditions: sacrificed 10 minutes after injection, mean ± SEM, six rats
Protocol: Immature female Sprague-Pawley rats were obtained from the Charles River Laboratories (Wilmington, MA). After arrival they were housed at 25° C with a 14:10 hr light:dark cycle. Water and Purina rat chow were available ad libitum. Pups were kept with their mothers until 21 days of age.
Normal saline with 0.1% gelatin was the vehicle for intravenous (i.v.) injections of the peptides. The anesthetized rats, weighing 55-65 grams, were injected i.v. with the quantity of growth hormone releasing compounds indicated in Table 3. Injection was made as a 0.1 mL solution into the jugular vein.
All animals were sacrificed by guillotine 10 minutes after the final test injection (see Table 3). Trunk blood for the determination of blood GH levels was collected following decapitation. After allowing the blood to clot, it was centrifuged and the serum was separated from the clot. Serum was kept frozen until the day of sampling for radioimmunoassay (RIA) determination of growth hormone levels according to the following procedure, as developed by the National Institute of Arthritis, Diabetes and Digestive and Kidney Diseases (NIADDK).
Reagents are generally added to the RIA analysis tubes at a single sitting, at refrigerator temperature (about 4°C) in the following sequence: • (a) buffer, • (b) "cold" (i.e., non-radioactive) standard or unknown serum sample to be analyzed, • (c) radio-iodinated growth hormone antigen, and • (d) growth hormone antiserum. Reagent addition is generally carried out so that there is achieved a final RIA tube dilution of about 1:30,000 (antiserum to total liquid volume; vol:vol).
The mixed reagents are then typically incubated at room temperature (about 25°C) for about 24 hours prior to addition of a second antibody (e.g., goat or rabbit anti-monkey gamma globulin serum) which binds to and causes precipitation of the complexed growth hormone antiserum. Precipitated contents of the RIA tubes are then analyzed for the number of counts in a specified period of time in a gamma scintillation counter. A standard curve is prepared by plotting number of radioactive counts versus growth hormone (GH) level. GH levels of unknowns are then determined by reference to the standard curve.
Serum GH was measured by RIA with reagents provided by the National Hormone and Pituitary Program.
Serum levels in Table 3 are recorded in ng/mL in terms of the rat GH standard of 0.61 International Units/mg (IU/mg). Data is recorded as the mean +/-standard error of the mean (SEM). Statistical analysis was performed with Student's t-test. In Table 3 the results shown are the average of studies with six rats.

[1] = Total Dose 0.3 µg i.v., 26 day old female rats, study with Control GH 142±43
[2] = Total Dose 0.3 µg i.v., 26 day old female rats, study with Control GH 208±47
[3] = Total Dose 1.0 µg i.v., 26 day old female rats, study with Control GH 142±43
[4] = Total Dose 1.0 µg i.v., 26 day old female rats, study with Control GH 208±47
[5] = Total Dose 1.0 µg i.v., 29 day old female rats, study with Control GH 108±17
[6] = Total Dose 3.0 µg i.v., 26 day old female rats, study with Control GH 142±43
[7] = Total Dose 3.0 µg i.v., 26 day old female rats, study with Control GH 208±47
[8] = Total Dose 3.0 µg i.v., 29 day old female rats, study with Control GH 108±17

SMILES	GH Released by Compound in Column A [1] [ng/mL]	GH Released by Compound in Column A [2] [ng/mL]	GH Released by Compound in Column A [3] [ng/mL]	GH Released by Compound in Column A [4] [ng/mL]	GH Released by Compound in Column A [5] [ng/mL]	GH Released by Compound in Column A [6] [ng/mL]	GH Released by Compound in Column A [7] [ng/mL]	GH Released by Compound in Column A [8] [ng/mL]	GH Released by Compound in Column A (Total Dose 10.0 µg i.v., 26 day old female rats, study with Control GH 142±43) [ng/mL]	GH Released by Compound in Column A (Total Dose 10.0 µg i.v., 29 day old female rats, study with Control GH 108±17) [ng/mL]	GH Released by Compound in Column A (Total Dose 30.0 µg i.v., 26 day old female rats, study with Control GH 142±43) [ng/mL]	GH Released by Compound in Column A (Total Dose 0.3 µg i.v., 26 day old female rats, study with Control GH 151±16) [ng/mL]	GH Released by Compound in Column A (Total Dose 1.0 µg i.v., 26 day old female rats, study with Control GH 151±16) [ng/mL]	GH Released by Compound in Column A (Total Dose 3.0 µg i.v., 26 day old female rats, study with Control GH 111±25) [ng/mL]	GH Released by Compound in Column A (Total Dose 3.0 µg i.v., 26 day old female rats, study with Control GH 151±16) [ng/mL]	GH Released by Compound in Column A (Total Dose 0.3 µg i.v., 29 day old female rats, study with Control GH 108±17) [ng/mL]
C[C@H](N)C(=O)N[C@H](Cc1c[nH]c2ccccc12)C(=O)N[C@@H](C)C(=O)N[C@@H](Cc1c[nH]c2ccccc12)C(=O)N[C@H](Cc1ccccc1)C(=O)N[C@@H](CCCCN)C(N)=O [Ala-DTrp-Ala-Trp-DPhe-Lys-NH₂] (H-A[dW]AW[dF]K-NH2)	303 ± 41	265 ± 96	729 ± 115	754 ± 164	745 ± 68	1164 ± 215	1449 ± 238	1673 ± 352	2353 ± 149	2388 ± 269	2484 ± 110	–	–	–	–	–
C[C@H](NC(=O)[C@@H](N)Cc1c[nH]cn1)C(=O)N[C@H](Cc1c[nH]c2ccccc12)C(=O)N[C@@H](C)C(=O)N[C@@H](Cc1c[nH]c2ccccc12)C(=O)N[C@H](Cc1ccccc1)C(=O)N[C@@H](CCCCN)C(N)=O [His-Ala-DTrp-Ala-Trp-DPhe-Lys-NH₂] (H-HA[dW]AW[dF]K-NH2)	–	–	–	–	–	–	–	–	–	–	–	261 ± 32	830 ± 103	2588 ± 341	2365 ± 478	–
C[C@H](NC(=O)[C@@H](Cc1c[nH]c2ccccc12)NC(=O)[C@@H](N)Cc1c[nH]cn1)C(=O)N[C@@H](Cc1c[nH]c2ccccc12)C(=O)N[C@H](Cc1ccccc1)C(=O)N[C@@H](CCCCN)C(N)=O [His-DTrp-Ala-Trp-DPhe-Lys-NH₂] (H-H[dW]AW[dF]K-NH2)	533 ± 77	660 ± 128	1656 ± 213	1669 ± 257	2614 ± 349	2653 ± 378	3078 ± 629	3215 ± 547	–	–	–	–	–	–	–	764 ± 62
